Measurements taken from ChEMBL document CHEMBL4421717, “Antagonists and agonists of bitter taste receptors and uses thereof” (2012).
Activity calls are given as the source filed them. The calls are words filed in the database; no cut-off is given here.

What was measured:
Type in all cases: functional, cell-based
[1] = molecular target: T1, Taste receptor type 2 member 46 (Homo sapiens, UniProt P59540); assay: Antagonist activity at recombinant human N-terminal rat ST3 receptor-fused TAS2R46 expressed in HEK293T cells co-expressing Galpha16gust44 assessed as inhibition of 100 uM absinthin-induced intracellular calcium level 100 uM by FLIPR assay
T1 sequence (P59540 whole entry): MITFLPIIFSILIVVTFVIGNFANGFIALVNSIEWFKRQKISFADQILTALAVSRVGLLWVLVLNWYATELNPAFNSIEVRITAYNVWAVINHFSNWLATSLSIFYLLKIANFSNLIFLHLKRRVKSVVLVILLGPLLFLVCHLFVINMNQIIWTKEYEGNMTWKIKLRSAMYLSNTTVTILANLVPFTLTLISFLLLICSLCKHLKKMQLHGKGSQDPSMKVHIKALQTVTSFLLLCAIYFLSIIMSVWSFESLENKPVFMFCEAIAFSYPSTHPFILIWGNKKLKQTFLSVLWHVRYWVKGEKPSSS

[2] = molecular target: T1, Taste receptor type 2 member 46; assay: Antagonist activity at recombinant human N-terminal rat ST3 receptor-fused TAS2R46 expressed in HEK293T cells co-expressing Galpha16gust44 assessed as inhibition of 30 uM andrographolide-induced intracellular calcium level 100 uM by FLIPR assay
[3] = molecular target: Taste receptor type 2 member 31 (Homo sapiens) (UniProt P59538); assay: Agonist activity at recombinant human N-terminal rat ST3 receptor-fused TAS2R44 expressed in HEK293T cells co-expressing Galpha16gust44 assessed as effect on intracellular calcium level at 100 uM by FLIPR assay
[4] = molecular target: T2, Taste receptor type 2 member 8 (Homo sapiens) (UniProt Q9NYW2); assay: Agonist activity at recombinant human N-terminal rat ST3 receptor-fused TAS2R8 expressed in HEK293T cells co-expressing Galpha16gust44 assessed as effect on intracellular calcium level at 100 uM by FLIPR assay
T2 sequence (whole entry): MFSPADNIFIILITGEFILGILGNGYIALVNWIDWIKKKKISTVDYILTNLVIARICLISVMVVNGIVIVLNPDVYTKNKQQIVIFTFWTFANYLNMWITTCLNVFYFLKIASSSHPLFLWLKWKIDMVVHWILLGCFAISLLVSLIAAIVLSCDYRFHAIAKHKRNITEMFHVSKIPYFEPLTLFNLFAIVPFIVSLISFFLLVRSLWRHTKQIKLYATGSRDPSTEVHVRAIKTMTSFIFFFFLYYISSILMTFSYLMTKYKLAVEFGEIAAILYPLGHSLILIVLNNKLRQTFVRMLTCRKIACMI

[5] = molecular target: Taste receptor type 2 member 7 (Homo sapiens) (UniProt Q9NYW3); assay: Agonist activity at recombinant human N-terminal rat ST3 receptor-fused TAS2R7 expressed in HEK293T cells co-expressing Galpha16gust44 assessed as effect on intracellular calcium level at 100 uM by FLIPR assay
[6] = molecular target: Taste receptor type 2 member 31 (Homo sapiens, UniProt P59538); assay: Agonist activity at recombinant human N-terminal rat ST3 receptor-fused TAS2R44 expressed in HEK293T cells co-expressing Galpha16gust44 assessed as effect on intracellular calcium level by FLIPR assay
[7] = molecular target: T3, Taste receptor type 2 member 46 (Homo sapiens) (UniProt P59540); assay: (§1) Competitive antagonist activity at recombinant human N-terminal rat ST3 receptor-fused TAS2R46 expressed in HEK293T cells co-expressing Galpha16gust44 assessed as inhibition strychnine-induced intracellular calcium level by measuring strychnine induced maximum signal amplitude at 30 uM by FLIPR assay (reference value: 0.42 +/- 0.09 au))
T3 sequence (whole entry): T1 sequence (P59540 whole entry)

[8] = molecular target: Taste receptor type 2 member 7 (Homo sapiens) (UniProt Q9NYW3); assay: Activity at recombinant human N-terminal rat ST3 receptor-fused TAS2R7 expressed in HEK293T cells co-expressing Galpha16gust44 assessed as increase in quinine sulfate-induced intracellular calcium level at 100 uM by FLIPR assay
[9] = molecular target: T4, Taste receptor type 2 member 4 (Homo sapiens) (UniProt Q9NYW5); assay: Agonist activity at recombinant human N-terminal rat ST3 receptor-fused TAS2R4 expressed in HEK293T cells co-expressing Galpha16gust44 assessed as effect on intracellular calcium level at 100 uM by FLIPR assay
T4 sequence (whole entry): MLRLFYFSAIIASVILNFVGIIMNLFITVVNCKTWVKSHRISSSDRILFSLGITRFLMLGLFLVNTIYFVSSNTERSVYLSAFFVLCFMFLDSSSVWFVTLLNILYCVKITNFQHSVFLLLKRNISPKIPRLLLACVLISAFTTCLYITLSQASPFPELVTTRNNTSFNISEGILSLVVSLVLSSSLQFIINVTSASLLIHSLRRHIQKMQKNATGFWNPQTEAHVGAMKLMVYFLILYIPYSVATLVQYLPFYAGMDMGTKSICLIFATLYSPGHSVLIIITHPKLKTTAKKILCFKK

[10] = molecular target: T5, Taste receptor type 2 member 9 (Homo sapiens) (UniProt Q9NYW1); assay: Agonist activity at recombinant human N-terminal rat ST3 receptor-fused TAS2R9 expressed in HEK293T cells co-expressing Galpha16gust44 assessed as effect on intracellular calcium level at 100 uM by FLIPR assay
T5 sequence (whole entry): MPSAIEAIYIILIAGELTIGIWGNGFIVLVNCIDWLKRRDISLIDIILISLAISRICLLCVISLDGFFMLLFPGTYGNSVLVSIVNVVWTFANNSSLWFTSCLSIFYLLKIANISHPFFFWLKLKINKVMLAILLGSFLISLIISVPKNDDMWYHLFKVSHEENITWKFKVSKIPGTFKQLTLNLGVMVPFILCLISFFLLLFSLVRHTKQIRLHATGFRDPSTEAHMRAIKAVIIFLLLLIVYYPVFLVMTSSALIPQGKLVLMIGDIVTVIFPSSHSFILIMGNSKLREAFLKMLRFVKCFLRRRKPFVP

[11] = molecular target: T3, Taste receptor type 2 member 46 (Homo sapiens); assay: as §1, with “10” for “30”
[12] = molecular target: Taste receptor type 2 member 45 (Homo sapiens) (UniProt P59539); assay: Agonist activity at recombinant human N-terminal rat ST3 receptor-fused TAS2R45 expressed in HEK293T cells co-expressing Galpha16gust44 assessed as effect on intracellular calcium level at 100 uM by FLIPR assay
[13] = molecular target: T6, Taste receptor type 2 member 50 (Homo sapiens) (UniProt P59544); assay: Agonist activity at recombinant human N-terminal rat ST3 receptor-fused TAS2R50 expressed in HEK293T cells co-expressing Galpha16gust44 assessed as effect on intracellular calcium level at 100 uM by FLIPR assay
T6 sequence (whole entry): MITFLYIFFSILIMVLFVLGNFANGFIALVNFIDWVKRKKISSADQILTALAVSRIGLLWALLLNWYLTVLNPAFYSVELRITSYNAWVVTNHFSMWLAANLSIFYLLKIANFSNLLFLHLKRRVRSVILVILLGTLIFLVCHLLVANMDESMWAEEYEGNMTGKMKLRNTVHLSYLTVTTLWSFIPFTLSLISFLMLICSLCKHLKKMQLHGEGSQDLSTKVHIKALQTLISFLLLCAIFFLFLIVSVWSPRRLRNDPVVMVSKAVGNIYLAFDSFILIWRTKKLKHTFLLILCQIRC

Taste receptor type 2 member 7 (Homo sapiens), sequence (Q9NYW3 whole entry, the tested form may be a part): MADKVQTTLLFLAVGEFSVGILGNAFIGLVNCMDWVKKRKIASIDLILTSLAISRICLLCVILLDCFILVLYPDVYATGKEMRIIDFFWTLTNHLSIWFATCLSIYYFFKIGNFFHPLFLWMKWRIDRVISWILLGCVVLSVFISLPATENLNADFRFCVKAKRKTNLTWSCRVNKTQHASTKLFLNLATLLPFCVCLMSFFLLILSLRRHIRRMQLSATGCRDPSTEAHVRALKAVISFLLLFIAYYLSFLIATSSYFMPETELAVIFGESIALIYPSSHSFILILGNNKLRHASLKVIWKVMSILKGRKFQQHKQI
Taste receptor type 2 member 31, sequence (P59538 whole entry, the tested form may be a part): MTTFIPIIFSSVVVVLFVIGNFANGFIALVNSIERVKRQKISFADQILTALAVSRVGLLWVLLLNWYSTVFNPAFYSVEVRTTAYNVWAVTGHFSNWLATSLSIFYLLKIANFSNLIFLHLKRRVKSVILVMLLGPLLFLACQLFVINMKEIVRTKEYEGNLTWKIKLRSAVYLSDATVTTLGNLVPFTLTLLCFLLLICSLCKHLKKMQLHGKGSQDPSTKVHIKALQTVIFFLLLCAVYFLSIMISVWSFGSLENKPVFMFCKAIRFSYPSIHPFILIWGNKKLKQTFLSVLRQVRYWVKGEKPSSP
Taste receptor type 2 member 31 (Homo sapiens), sequence (P59538 whole entry, the tested form may be a part): as above
Taste receptor type 2 member 45 (Homo sapiens), sequence (P59539 whole entry, the tested form may be a part): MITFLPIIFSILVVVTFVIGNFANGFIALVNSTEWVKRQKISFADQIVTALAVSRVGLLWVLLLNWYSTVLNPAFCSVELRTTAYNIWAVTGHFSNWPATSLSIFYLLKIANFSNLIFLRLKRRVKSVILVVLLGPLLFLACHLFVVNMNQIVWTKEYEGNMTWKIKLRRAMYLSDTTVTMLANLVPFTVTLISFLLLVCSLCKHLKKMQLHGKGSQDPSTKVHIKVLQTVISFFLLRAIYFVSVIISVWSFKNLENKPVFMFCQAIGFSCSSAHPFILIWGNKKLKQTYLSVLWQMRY

C/C1=C\C[C@H](O)[C@@H](C)C[C@H]2OC(=O)[C@@H](C)C2CC1 (stereo partly drawn) gave an IC50 [1] of 57.8 µM and an IC50 [2] of 44.5 µM.

C/C1=C\C[C@H](O)/C(C)=C/[C@H]2OC(=O)[C@@H](C)C2CC1 (stereo partly drawn) was tested, and the Activity [3] was “Active”, the Activity [4] was “Active” and the Activity [5] was “Active”. For the same compound, the EC50 [6] was 31.5 µM, the Activity [7] was 0.41 a.u and the Activity [8] was “Active”. The Activity [9] was “Active”, the Activity [10] was “inactive” and the Activity [11] was 0.4 a.u. The Activity [12] was “inactive” and the Activity [13] was “inactive”.
